Results reported in PubChem BioAssay AID2060602 (Molecular Pharmacology Branch, DTP, NCI, 2025).
Where “and” joins values, the source holds several entries; their conditions need not be identical. Identical values can stand only once.

Test system: 648629-189-R-J1-PDC complex spheroids viability
Test: Anticancer human tumor 648629-189-R-J1-PDC patient-derived bladder carcinoma cell line growth inhibition [CLK]
Conditions: for viability, T/C: stronger effect = lower value
Outline: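 Multi-cell-type spheroids combined patient-derived tumor cells with HUVEC endothelial cells and human mesenchymal stem cells. Paired agents were dosed in half-log steps down from about clinical Cmax, or from 10 microM where Cmax was unknown.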

[1] = curve of first compound, second compound 0.0316 µM
[2] = curve of first compound, second compound 0.1 µM
[3] = curve of first compound, second compound 0.316 µM
[4] = curve of first compound, second compound 1 µM
[5] = curve of first compound, second compound 3.16 µM
[6] = curve of first compound, second compound 10 µM
[7] = second compound 0.0316 µM, first compound 0.0316 µM
[8] = second compound 0.0316 µM, first compound 0.1 µM
[9] = second compound 0.0316 µM, first compound 0.316 µM
[10] = second compound 0.0316 µM, first compound 1 µM
[11] = second compound 0.0316 µM, first compound 3.16 µM
[12] = second compound 0.0316 µM, first compound 10 µM
[13] = second compound 0.1 µM, first compound 0.0316 µM
[14] = second compound 0.1 µM, first compound 0.1 µM
[15] = second compound 0.1 µM, first compound 0.316 µM
[16] = second compound 0.1 µM, first compound 1 µM
[17] = second compound 0.1 µM, first compound 3.16 µM
[18] = second compound 0.1 µM, first compound 10 µM
[19] = second compound 0.316 µM, first compound 0.0316 µM
[20] = second compound 0.316 µM, first compound 0.1 µM
[21] = second compound 0.316 µM, first compound 0.316 µM
[22] = second compound 0.316 µM, first compound 1 µM
[23] = second compound 0.316 µM, first compound 3.16 µM
[24] = second compound 0.316 µM, first compound 10 µM
[25] = second compound 1 µM, first compound 0.0316 µM
[26] = second compound 1 µM, first compound 0.1 µM
[27] = second compound 1 µM, first compound 0.316 µM
[28] = second compound 1 µM, first compound 1 µM
[29] = second compound 1 µM, first compound 3.16 µM
[30] = second compound 1 µM, first compound 10 µM
[31] = second compound 3.16 µM, first compound 0.0316 µM
[32] = second compound 3.16 µM, first compound 0.1 µM
[33] = second compound 3.16 µM, first compound 0.316 µM
[34] = second compound 3.16 µM, first compound 1 µM
[35] = second compound 3.16 µM, first compound 3.16 µM
[36] = second compound 3.16 µM, first compound 10 µM
[37] = second compound 10 µM, first compound 0.0316 µM
[38] = second compound 10 µM, first compound 0.1 µM
[39] = second compound 10 µM, first compound 0.316 µM
[40] = second compound 10 µM, first compound 1 µM
[41] = second compound 10 µM, first compound 3.16 µM
[42] = second compound 10 µM, first compound 10 µM
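Wherever viability, T/C is given: drug exposure lasted seven days before viability readout; 100% = DMSO vehicle control wells.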

SMILES: NC(=O)C(=Cn1cnc(-c2cc(C(F)(F)F)cc(C(F)(F)F)c2)n1)c1cncnc1 + CN1CCN(c2cc(C(=O)Nc3cc4cc(-c5cnn(C)c5)ccc4cn3)ccn2)CC1
- IC50 [1]: 54.4 nM
- IC50 [2]: 53.3 nM
- IC50 [3]: < 9.49 nM
- IC50 [4]: < 9.49 nM
- IC50 [5]: < 9.49 nM
- IC50 [6]: < 9.49 nM
- viability, T/C (second compound 0.0316 µM, first compound 0.00949 µM): 113%
- viability, T/C (second compound 0.0316 µM, first compound 0.03 µM): 88.2%
- viability, T/C (second compound 0.0316 µM, first compound 0.0949 µM): 14.3%
- viability, T/C (second compound 0.0316 µM, first compound 0.3 µM): 2.66%
- viability, T/C (second compound 0.0316 µM, first compound 0.949 µM): 1.8%
- viability, T/C (second compound 0.0316 µM, first compound 3 µM): 1.61%
- viability, T/C (second compound 0.1 µM, first compound 0.00949 µM): 93.7%
- viability, T/C (second compound 0.1 µM, first compound 0.03 µM): 87.7%
- viability, T/C (second compound 0.1 µM, first compound 0.0949 µM): 12.2%
- viability, T/C (second compound 0.1 µM, first compound 0.3 µM): 2.12%
- viability, T/C (second compound 0.1 µM, first compound 0.949 µM): 0.68%
- viability, T/C (second compound 0.1 µM, first compound 3 µM): 0.92%
- viability, T/C (second compound 0.316 µM, first compound 0.00949 µM): 14.6%
- viability, T/C (second compound 0.316 µM, first compound 0.03 µM): 11.7%
- viability, T/C (second compound 0.316 µM, first compound 0.0949 µM): 3%
- viability, T/C (second compound 0.316 µM, first compound 0.3 µM): 0.3%
- viability, T/C (second compound 0.316 µM, first compound 0.949 µM): 0.08%
- viability, T/C (second compound 0.316 µM, first compound 3 µM): 1.52%
- viability, T/C (second compound 1 µM, first compound 0.00949 µM): 0.1%
- viability, T/C (second compound 1 µM, first compound 0.03 µM): 0.12%
- viability, T/C (second compound 1 µM, first compound 0.0949 µM): 0.12%
- viability, T/C (second compound 1 µM, first compound 0.3 µM): 0.07%
- viability, T/C (second compound 1 µM, first compound 0.949 µM): 0.06%
- viability, T/C (second compound 1 µM, first compound 3 µM): 0.63%
- viability, T/C (second compound 3.16 µM, first compound 0.00949 µM): 0.07%
- viability, T/C (second compound 3.16 µM, first compound 0.03 µM): 0.1%
- viability, T/C (second compound 3.16 µM, first compound 0.0949 µM): 0.12%
- viability, T/C (second compound 3.16 µM, first compound 0.3 µM): 0.12%
- viability, T/C (second compound 3.16 µM, first compound 0.949 µM): 0.79%
- viability, T/C (second compound 3.16 µM, first compound 3 µM): 0.75%
- viability, T/C (second compound 10 µM, first compound 0.00949 µM): 0.05%
- viability, T/C (second compound 10 µM, first compound 0.03 µM): 0.08%
- viability, T/C (second compound 10 µM, first compound 0.0949 µM): 0.17%
- viability, T/C (second compound 10 µM, first compound 0.3 µM): 0.2%
- viability, T/C (second compound 10 µM, first compound 0.949 µM): 1.48%
- viability, T/C (second compound 10 µM, first compound 3 µM): 0.19%

SMILES: O=c1[nH]cc(F)c(=O)[nH]1 + CN1CCN(c2cc(C(=O)Nc3cc4cc(-c5cnn(C)c5)ccc4cn3)ccn2)CC1
- IC50 [1]: 1470 nM
- IC50 [2]: 1080 nM
- IC50 [3]: < 31.6 nM
- IC50 [4]: < 31.6 nM
- IC50 [5]: < 31.6 nM
- IC50 [6]: < 31.6 nM
- viability, T/C [7]: 114%
- viability, T/C [8]: 121%
- viability, T/C [9]: 83%
- viability, T/C [10]: 63.3%
- viability, T/C [11]: 30.7%
- viability, T/C [12]: 21.9%
- viability, T/C [13]: 114%
- viability, T/C [14]: 97.7%
- viability, T/C [15]: 96.3%
- viability, T/C [16]: 49.1%
- viability, T/C [17]: 33.7%
- viability, T/C [18]: 21.9%
- viability, T/C [19]: 40.7%
- viability, T/C [20]: 40.6%
- viability, T/C [21]: 34.1%
- viability, T/C [22]: 29.9%
- viability, T/C [23]: 23.9%
- viability, T/C [24]: 20.7%
- viability, T/C [25]: 0.35%
- viability, T/C [26]: 0.26%
- viability, T/C [27]: 0.78%
- viability, T/C [28]: 0.34%
- viability, T/C [29]: 0.27%
- viability, T/C [30]: 1.43%
- viability, T/C [31]: 0.06%
- viability, T/C [32]: 1.49%
- viability, T/C [33]: 0.1%
- viability, T/C [34]: 0.07%
- viability, T/C [35]: 0.55%
- viability, T/C [36]: 0.1%
- viability, T/C [37]: 0.06%
- viability, T/C [38]: 0.27%
- viability, T/C [39]: 3.05%
- viability, T/C [40]: 0.13%
- viability, T/C [41]: 1.38%
- viability, T/C [42]: 1.3%

SMILES: CCc1c2c(nc3ccc(O)cc13)-c1cc3c(c(=O)n1C2)COC(=O)[C@]3(O)CC
- viability, T/C (compound 0.00316 µM): 43.1% and 28.1%
- viability, T/C (compound 0.01 µM): 17.6% and 10.2%
- viability, T/C (compound 0.0316 µM): 6.99% and 10.1%
- viability, T/C (compound 0.1 µM): 5.22% and 6.99%
- viability, T/C (compound 0.316 µM): 4.52% and 6.06%
- viability, T/C (compound 1 µM): 3.5% and 4.41%
- IC50 (curve of compound): < 3.16 nM

SMILES: COc1cccc2c1C(=O)c1c(O)c3c(c(O)c1C2=O)CC(O)(C(=O)CO)CC3OC1CC(N)C(O)C(C)O1 (stereo not drawn) + CNC(=O)c1ccc(Nc2nc(OC3CCCC3)c3c(-c4ccc5nc(C)oc5c4)c[nH]c3n2)c(OC)c1
- IC50 [1]: < 31.6 nM
- IC50 [2]: < 31.6 nM
- IC50 [3]: < 31.6 nM
- IC50 [4]: < 31.6 nM
- IC50 [5]: < 31.6 nM
- IC50 [6]: < 31.6 nM
- viability, T/C [7]: 26.4%
- viability, T/C [8]: 13.9%
- viability, T/C [9]: 5.64%
- viability, T/C [10]: 0.45%
- viability, T/C [11]: 0.38%
- viability, T/C [12]: 0.54%
- viability, T/C [13]: 19.4%
- viability, T/C [14]: 11.8%
- viability, T/C [15]: 5.03%
- viability, T/C [16]: 0.29%
- viability, T/C [17]: 1.37%
- viability, T/C [18]: 2.64%
- viability, T/C [19]: 16.4%
- viability, T/C [20]: 13.1%
- viability, T/C [21]: 6.53%
- viability, T/C [22]: 0.2%
- viability, T/C [23]: 0.98%
- viability, T/C [24]: 0.49%
- viability, T/C [25]: 12.5%
- viability, T/C [26]: 10.1%
- viability, T/C [27]: 4.27%
- viability, T/C [28]: 0.27%
- viability, T/C [29]: 0.56%
- viability, T/C [30]: 3.36%
- viability, T/C [31]: 18.9%
- viability, T/C [32]: 13.1%
- viability, T/C [33]: 4.42%
- viability, T/C [34]: 0.23%
- viability, T/C [35]: 0.79%
- viability, T/C [36]: 1.4%
- viability, T/C [37]: 21.1%
- viability, T/C [38]: 13.5%
- viability, T/C [39]: 8.07%
- viability, T/C [40]: 0.28%
- viability, T/C [41]: 2.28%
- viability, T/C [42]: 3.42%
